Reference: patent publication US10202351B2, “Pyrazolyl derivatives as pest control agents” (BAYER ANIMAL HEALTH GMBH, priority 2015, dated 2019)

How the values were obtained:
[1] = tested on: Boophilus microplus; assay: Boophilus microplus injection test; format: in vivo; conditions: application rate 20 μg/animal, after 7 days, laying of fertile eggs
Experimental: Solvent: dimethyl sulfoxide […] The animals are transferred into dishes and kept in a climate-controlled room. Efficacy is assessed after 7 days by laying of fertile eggs. Eggs which are not visibly fertile are stored in a climate-controlled cabinet until the larvae hatch after about 42 days.

[2] = tested on: Ctenocephalides felis; assay: Ctenocephalides felis oral test; format: in vivo; conditions: application rate 100 ppm in citrated cattle blood, kill after 2 days
Excerpt: Solvent: dimethyl sulfoxide […] Dilution with citrated cattle blood gives the desired concentration. About 20 unfed adult cat fleas (Ctenocephalides felis) are placed into a chamber which is closed at the top and bottom with gauze. A metal cylinder whose bottom end is closed with parafilm is placed onto the chamber. The cylinder contains the blood/active ingredient formulation, which can be imbibed by the fleas through the parafilm membrane.

[3] = tested on: Lucilia cuprina; assay: Lucilia cuprina test; format: in vivo; conditions: application rate 100 ppm, L1 larvae, kill after 2 days
Outline: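 About 20 L1 larvae were placed in vessels of minced horsemeat containing compound, formulated in dimethyl sulfoxide and diluted with water to the test concentration. Kill (%) was scored after 2 days; 100% means all larvae dead, 0% none.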

[4] = tested on: Musca domestica; assay: Musca domestica test; format: in vivo; conditions: application rate 100 ppm, adult houseflies, kill after 2 days
Outline: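 Compound dissolved in DMSO (10 mg per 0.5 ml), diluted with water to test concentration and applied to a sugar-solution sponge. Vessels held 10 adult houseflies; percent kill scored after 2 days (100% = all dead).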

[5] = tested on: Meloidogyne incognita; assay: Meloidogyne incognita test; format: in vivo; conditions: application rate 20 ppm, nematicidal efficacy by formation of galls on lettuce after 14 days
Experimental: Solvent: 125.0 parts by weight of acetone
To produce a suitable active ingredient formulation, 1 part by weight of active ingredient is mixed with the stated amount of solvent and the concentrate is diluted to the desired concentration with water.
Vessels are filled with sand, active ingredient solution, an egg/larvae suspension of the southern root-knot nematode (Meloidogyne incognita) and lettuce seeds. The lettuce seeds germinate and the plants develop. The galls develop on the roots.
After 14 days, the nematicidal efficacy in % is determined by the formation of galls. 100% means that no galls were found; 0% means that the number of galls on the treated plants corresponds to the untreated control.

[6] = tested on: Phaedon cochleariae; assay: Phaedon cochleariae spray test; format: in vivo; conditions: larvae on Chinese cabbage leaf discs, after 7 days
Experimental: (§1) Solvent: 78.0 parts by weight of acetone • • 1.5 parts by weight of dimethylformamide Emulsifier: alkylaryl polyglycol ether […] To produce further test concentrations, the formulation is diluted with emulsifier-containing water. Discs of Chinese cabbage leaves (Brassica pekinensis) are sprayed with an active ingredient formulation of the desired concentration and, after drying, populated with larvae of the mustard beetle (Phaedon cochleariae).

[7] = tested on: Spodoptera frugiperda; assay: Spodoptera frugiperda spray test; format: in vivo; conditions: caterpillars on maize leaf discs, after 7 days
Experimental: as §1, with “Leaf discs” for “Discs”, “maize (Zea mays)” for “Chinese cabbage leaves (Brassica pekinensis)”, “compound” for “ingredient”, “caterpillars” for “larvae”, “armyworm (Spodoptera frugiperda).” for “mustard beetle (Phaedon cochleariae).”

[8] = tested on: Tetranychus urticae; assay: Tetranychus urticae spray test, OP-resistant; format: in vivo; conditions: all stages on bean leaf discs, after 6 days
Experimental: Solvent: 78.0 parts by weight of acetone • • 1.5 parts by weight of dimethylformamide Emulsifier: alkylaryl polyglycol ether […] To produce further test concentrations, the formulation is diluted with emulsifier-containing water. Discs of bean leaves (Phaseolus vulgaris) infested with all stages of the greenhouse red spider mite (Tetranychus urticae) are sprayed with an active ingredient formulation of the desired concentration.

[9] = tested on: Ctenocephalides felis; assay: Ctenocephalides felis in vitro contact test with adult cat fleas; format: in vivo; conditions: application rate 5 μg/cm^2 (500 g/ha), after 48 h, dead or moribund fleas
Experimental: After the solvent has evaporated off, the tubes are populated with 5-10 adult cat fleas (Ctenocephalides felis), sealed with a perforated plastic lid and incubated in a horizontal position at room temperature and ambient humidity. After 48 h, efficacy is determined. To this end, the tubes are stood upright and the fleas are knocked to the base of the tube. Fleas which remain motionless at the base or move in an uncoordinated manner are considered to be dead or moribund.

[10] = tested on: Rhipicephalus sanguineus; assay: Rhipicephalus sanguineus in vitro contact test with adult brown dog ticks; format: in vivo; conditions: after 48 h, dead or moribund ticks
Experimental: After the solvent has evaporated off, the tubes are populated with 5-10 adult dog ticks (Rhipicephalus sanguineus), sealed with a perforated plastic lid and incubated in a horizontal position in the dark at room temperature and ambient humidity. After 48 h, efficacy is determined. To this end, the ticks are knocked to the base of the tube and incubated on a hotplate at 45-50° C. for not more than 5 min. Ticks which remain motionless on the base or move in such an uncoordinated manner that they are unable to deliberately avoid the heat by climbing upwards are considered to be dead or moribund.

[11] = tested on: cattle ticks (Boophilus microplus) Parkhurst strain, SP-resistant; assay: Boophilus microplus dip test; format: in vivo; conditions: application rate 100 ppm, after 7 days, laying of fertile eggs
Experimental: Test animals: cattle ticks (Boophilus microplus) Parkhurst strain, SP-resistant
Solvent: dimethyl sulfoxide
10 mg of active ingredient are dissolved in 0.5 ml of dimethyl sulfoxide. To produce a suitable formulation, the active ingredient solution is diluted with water to the concentration desired in each case.
This active ingredient formulation is pipetted into tubes. 8-10 engorged adult female cattle ticks (Boophilus microplus) are transferred into a further tube with holes. The tube is immersed into the active ingredient formulation, and all the ticks are completely wetted. After the liquid has run out, the ticks are transferred on filter disks into plastic dishes and stored in a climate-controlled room.
Efficacy is assessed after 7 days by laying of fertile eggs. Eggs which are not visibly fertile are stored in a climate-controlled cabinet until the larvae hatch after about 42 days. An efficacy of 100% means that none of the ticks has laid any fertile eggs; 0% means that all the eggs are fertile.

[12] = logP determination by HPLC on reversed-phase column (EEC Directive 79/831 Annex V.A8); format: physicochemical; conditions: Table 1; HPLC C18, acetonitrile/water with formic acid
[13] = application rate 5 μg/cm^2 (500 g/ha)

lgP [12]	SMILES	efficacy [1] [%]	efficacy [2] [%]	efficacy [3] [%]	efficacy [4] [%]	efficacy [5] [%]	efficacy ([6]; application rate 100 g/ha) [%]	efficacy ([7]; application rate 100 g/ha) [%]	efficacy ([8]; application rate 100 g/ha) [%]	efficacy [9] [%]	efficacy [10, 13] [%]	efficacy [11] [%]	efficacy ([6]; application rate 500 g/ha) [%]	efficacy ([7]; application rate 500 g/ha) [%]	efficacy ([8]; application rate 500 g/ha) [%]	efficacy ([10]; application rate 1 μg/cm^2 (100 g/ha)) [%]
–	Cc1cc(C(F)(C(F)(F)F)C(F)(F)F)cc(C(F)(F)F)c1-n1cc(-c2cc(NC(=O)c3ccc(C#N)nc3)ccc2F)cn1 [Example 2-3]	100	100	100	100	90	100	100	90	–	–	–	–	–	–	–
–	Cc1cc(C(F)(C(F)(F)F)C(F)(F)F)cc(C(F)(F)F)c1-n1cc(-c2cc(NC(=O)c3ccc(Cl)nc3)ccc2F)cn1 [Example 2-4]	100	95	90	–	90	100	100	–	–	–	–	–	–	–	–
–	O=C(Nc1ccc(F)c(-c2cnn(-c3c(Br)cc(C(F)(C(F)(F)F)C(F)(F)F)cc3C(F)(F)F)c2)c1)c1ccncc1 [Example 2-13]	100	100	100	100	–	100	100	90	80	80	100	–	–	–	–
lgP 4.41	Cc1cc(C(F)(C(F)(F)F)C(F)(F)F)cc(C)c1-n1cc(-c2ccc(Cl)c(NC(=O)c3ccncc3)c2)cn1 [Example 2]	100	100	100	100	–	–	100	100	100	100	100	100	100	100	–
lgP 3.97	Cc1cc(C(F)(C(F)(F)F)C(F)(F)F)cc(C)c1-n1cc(-c2cnc(Cl)c(NC(=O)c3ccncc3)c2)cn1 [Example 12]	100	100	90	100	–	100	100	100	100	80	–	–	–	–	–
–	Cc1cc(C(F)(C(F)(F)F)C(F)(F)F)cc(C(F)(F)F)c1-n1cc(-c2ccc(F)c(NC(=O)c3ccsc3)c2)cn1 [Example 31]	100	100	100	100	–	100	100	100	–	–	90	–	–	–	–

SMILES	lgP [12]	efficacy [1] [%]	efficacy [2] [%]	efficacy [3] [%]	efficacy [4] [%]	efficacy [5] [%]	efficacy ([6]; application rate 100 g/ha) [%]	efficacy ([7]; application rate 100 g/ha) [%]	efficacy ([8]; application rate 100 g/ha) [%]	efficacy [9] [%]	efficacy [10, 13] [%]	efficacy [11] [%]	efficacy ([6]; application rate 500 g/ha) [%]	efficacy ([7]; application rate 500 g/ha) [%]	efficacy ([8]; application rate 500 g/ha) [%]	efficacy ([10]; application rate 1 μg/cm^2 (100 g/ha)) [%]
Cc1cc(C(F)(C(F)(F)F)C(F)(F)F)cc(C)c1-n1cc(-c2ccc(F)c(NC(=O)c3ccncc3)c2)cn1 [Example 6]	lgP 4.04	100	100	100	100	–	100	100	100	100	–	–	–	–	–	100
